# “Also recorded” adds a separate entry of the source. Marks after values point to notes of the source that are not given here.
# Tests used:
# wild-type littermates [1] = assay: Oral glucose tolerance test; assay type: in vivo, mouse; conditions: oral glucose 2 g/kg, during treatment (FIG. 4A)
# Experimental: (§1) Alzet mini-osmotic pumps (model 2002; Alza, Palo Alto, Calif.) were implanted subcutaneously to deliver exendin-(9-39) (Bachem Bioscience, King of Prussia, Pa.) at a rate of 150 pmol/kg/min or vehicle (0.9% NaCl/1% BSA) for 2 weeks. For determination of fasting blood glucose levels mice were fasted for 12-16 hours. Oral glucose tolerance testing was carried after a 12-16 hour fast by administering 2 g/kg of dextrose by oral gavage (feeding needles; Popper and Sons, Inc., Hyde Park, N.Y.). For insulin tolerance testing mice received 0.5 units/kg of insulin intraperitoneally after a 4 hour fast. Blood glucose levels were measured using a hand-held glucose meter (FreeStyle; TheraSense, Alameda, Calif.). Insulin and glucagon were measured by ELISA (Mouse Endocrine Immunoassay Panel; Linco Research, Inc., St. Charles, Mo.). Twelve-18 week old male SUR-1^−/− and wildtype littermates underwent a baseline evaluation including fasting blood glucose measurements and oral glucose tolerance testing, followed by randomization to treatment with exendin-(9-39) (150 pmol/kg/min) or vehicle (0.9% NaCl, 1% BSA). Fasting blood glucose levels were determined after an overnight fast on days 3 and 7 of the infusion. In addition, oral glucose tolerance and insulin sensitivity were evaluated during treatment. […] After an oral load of glucose, SUR-1^−/− mice were glucose intolerant when compared to littermate wild-type controls (p<0.0001, repeated measures ANOVA) (FIG. 1C). The SUR-1^−/− mice have a significant impairment of insulin secretion in response to an oral glucose load (wildtype vs. SUR-1^−/−: p=0.02, repeated measures ANOVA) (FIG. 1D). Exendin-(9-39) was administered via an Azlet miniosmotic subcutaneous pump at a continuous infusion rate of 150 pmol/kg/min for 2 weeks. This dose was chosen based on results of a pilot study evaluating different doses previously shown to have an effect in normal humans and mice.
# SUR-1−/− mice [2] = assay: Oral glucose tolerance test; assay type: in vivo, mouse
# Experimental: as §1
# SUR-1−/− islets [3] = assay: Cytosolic free Ca2+ measurement (Fura-2); assay type: cell-based, mouse; conditions: for Amino acid-stimulated rise in intracellular calcium: SUR-1−/− islets, amino acids 4 mM (FIG. 6)
# Experimental: Mouse islets were isolated and cultured on poly-[…] coated glass coverslips under the same conditions as described above. The perifusion procedure and cytosolic-free Ca2+ ([Ca2+]i) measurement were described previously (24). In brief, the coverslip with attached islets was incubated with 15 μM Fura-2 acetoxymethylester (Molecular Probes, Eugene, Oreg.) in Krebs-Ringer bicarbonate buffer with 5 mM glucose for 35 min at 37° C. Islets were then perifused with Krebs-Ringer bicarbonate buffer with 0.25% bovine serum albumin at 37° C. at a flow rate of 2mL/min, while various agents were applied. [Ca2+]i was measured with a dual wavelength fluorescence microscope as previously described.
# SUR-1−/− islets [4] = assay: Insulin secretion in static incubations of isolated islets; assay type: cell-based, mouse
# SUR-1−/− islets [5] = assay: cAMP content determination in static incubations of isolated islets; assay type: cell-based, mouse
# Experimental: Islets were isolated as above, hand-picked and cultured for three days. Cultured islets were preincubated in glucose free Krebs-Ringer bicarbonate buffer for 60 min, 100 nM exendin-(9-39) was added 30 min into the preincubation period. Then, islets were exposed to different treatments for an additional 30 min in the presence of 0.1 mM isobutyl-methylzanthine (IBMX). After incubation, islets were washed 2 times by cold glucose-free Hank's buffer. cAMP was measured in islet lysates by ELISA (GE/Amersham Biosciences, Piscataway, N.J.).
# SUR-1−/− mice [6] = assay: Fasting hormonal profile (insulin, glucagon, insulin/glucose ratio); assay type: in vivo, mouse
# Experimental: Alzet mini-osmotic pumps (model 2002; Alza, Palo Alto, Calif.) were implanted subcutaneously to deliver exendin-(9-39) (Bachem Bioscience, King of Prussia, Pa.) at a rate of 150 pmol/kg/min or vehicle (0.9% NaCl/1% BSA) for 2 weeks. For determination of fasting blood glucose levels mice were fasted for 12-16 hours. Oral glucose tolerance testing was carried after a 12-16 hour fast by administering 2 g/kg of dextrose by oral gavage (feeding needles; Popper and Sons, Inc., Hyde Park, N.Y.). For insulin tolerance testing mice received 0.5 units/kg of insulin intraperitoneally after a 4 hour fast. Blood glucose levels were measured using a hand-held glucose meter (FreeStyle; TheraSense, Alameda, Calif.). Insulin and glucagon were measured by ELISA (Mouse Endocrine Immunoassay Panel; Linco Research, Inc., St. Charles, Mo.).
# [7] = tested on: SUR-1−/− and wild-type mice; assay: Insulin tolerance test (insulin sensitivity); assay type: in vivo, mouse; conditions: insulin 0.5 units/kg i.p. after 4 hour fast, any of the treatment groups (FIG. 4B)
# Experimental: Alzet mini-osmotic pumps (model 2002; Alza, Palo Alto, Calif.) were implanted subcutaneously to deliver exendin-(9-39) (Bachem Bioscience, King of Prussia, Pa.) at a rate of 150 pmol/kg/min or vehicle (0.9% NaCl/1% BSA) for 2 weeks. For determination of fasting blood glucose levels mice were fasted for 12-16 hours. Oral glucose tolerance testing was carried after a 12-16 hour fast by administering 2 g/kg of dextrose by oral gavage (feeding needles; Popper and Sons, Inc., Hyde Park, N.Y.). For insulin tolerance testing mice received 0.5 units/kg of insulin intraperitoneally after a 4 hour fast. Blood glucose levels were measured using a hand-held glucose meter (FreeStyle; TheraSense, Alameda, Calif.). Insulin and glucagon were measured by ELISA (Mouse Endocrine Immunoassay Panel; Linco Research, Inc., St. Charles, Mo.). Twelve-18 week old male SUR-1^−/− and wildtype littermates underwent a baseline evaluation including fasting blood glucose measurements and oral glucose tolerance testing, followed by randomization to treatment with exendin-(9-39) (150 pmol/kg/min) or vehicle (0.9% NaCl, 1% BSA). Fasting blood glucose levels were determined after an overnight fast on days 3 and 7 of the infusion. In addition, oral glucose tolerance and insulin sensitivity were evaluated during treatment. […]
# wild-type littermates [8] = assay: Fasting blood glucose during continuous subcutaneous exendin-(9-39) infusion; assay type: in vivo, mouse; conditions: wild-type mice, 150 pmol/kg/min
# Text: as §1, with “SUR-1^−/− mice were kindly provided by Dr. Mark A. Magnuson. The generation and genotyping of SUR-1^−/− mice were previously described (8). Mice are maintained in a C57B1/6 genetic background. Twelve to eighteen week SUR-1^−/− and wild-type littermate control mice were used in all experiments. Mice were maintained on a 12:12-h light-dark cycle and were fed a standard rodent chow diet. All procedures were approved and carried out according to the University of Pennsylvania Institutional Animal Care and Use Committee Guidelines. Alzet” for “Alzet”
# SUR-1−/− mice [9] = assay: as above; assay type: in vivo, mouse; conditions: for Fasting blood glucose levels: 150 pmol/kg/min s.c. pump, overnight fast
# Text: as §1, with “SUR-1^−/− mice were kindly provided by Dr. Mark A. Magnuson. The generation and genotyping of SUR-1^−/− mice were previously described (8). Mice are maintained in a C57B1/6 genetic background. Twelve to eighteen week SUR-1^−/− and wild-type littermate control mice were used in all experiments. Mice were maintained on a 12:12-h light-dark cycle and were fed a standard rodent chow diet. All procedures were approved and carried out according to the University of Pennsylvania Institutional Animal Care and Use Committee Guidelines. Alzet” for “Alzet”
# SUR-1−/− islets [10] = assay: Islet perifusion, fuel-induced insulin secretion; assay type: cell-based, mouse; conditions: perifused SUR-1−/− islets
# Experimental: Islets were isolated by collagenase digestion and cultured for 3 days in RPMI 1640 medium containing 10 mM glucose. The culture medium was supplemented with 10% fetal bovine serum, 2 mM glutamine, 100 units/mL penicillin, and 50 μg/mL streptomycin. Islets were incubated at 37° C. in a 5% CO2, 95% air-humidified incubator. Batches of 100 cultured mouse islets were loaded onto a nylon filter in a chamber and perifused with Krebs-Ringer bicarbonate buffer (115 mM NaCl, 24 mM NaHCO3, 5 mM KCl, 1 mM MgCl2, 2.5 mM CaCl2, 10 mM HEPES, pH 7.4) with 0.25% bovine serum albumin at a flow rate of 2 mL/min. Perifusate solutions were gassed with 95% O2, 5% CO2 and maintained at 37° C. Islets were stimulated with a ramp of amino acids. The physiologic mixture of 19 amino acids when used at a maximum concentration of 12 mM (about 3 times physiological concentration) had the following composition (in mM): glutamine 2, alanine 1.25, arginine 0.53, aspartate 0.11, citrulline 0.27, glutamate 0.35, glycine 0.85, histidine 0.22, isoleucine 0.27, leucine 0.46, lysine 1.06, methionine 0.14, ornithine 0.20, phenylalanine 0.23, proline 1, serine 1.62, threonine 0.77, tryptophan 0.21, valine 0.57. Samples were collected every minute for insulin assays. Insulin was measured by radioimmunoassay (Linco Research Inc., St. Charles, Mo.).
# [11] = during treatment, SUR-1−/− and wild-type (FIG. 3A)
substance,measurement,setting,value
Exendin (9-39) [Exendin-(9-39)],Glucose tolerance,wild-type littermates [1],no effect
same,Glucose tolerance,"SUR-1−/− mice [2]; oral glucose 2 g/kg, during treatment (FIG. 4A)",did not significantly impair; also recorded: did not influence
same,Return to baseline blood glucose levels,"SUR-1−/− mice [2]; oral glucose tolerance test, 120 minute time point",minor delay
same,Basal intracellular calcium,SUR-1−/− islets [3]; SUR-1−/− islets (FIG. 6),did not affect
same,Amino acid-stimulated rise in intracellular calcium,SUR-1−/− islets [3],no effect
same,Amino acid-stimulated rise in intracellular calcium,SUR-1−/− islets [3]; listed as exendin-(9-39),did not impact
same,Insulin Secretion,"SUR-1−/− islets [4]; 100 nM exendin-(9-39) + 4 mM AAM (amino acid-stimulated), AAM alone 389 ± 17",219 ± 14 ng/100 islets/30 min
same,Insulin Secretion,"SUR-1−/− islets [4]; 100 nM exendin-(9-39) + 4 mM AAM (amino acid-stimulated), AAM alone 389 ± 17, listed as exendin-(9-39)",219±14 ng/100 islets/30 min
same,Insulin Secretion,"SUR-1−/− islets [4]; basal, 100 nM exendin-(9-39), baseline 221 ± 22",126 ± 12^a ng/100 islets/30 min
same,Insulin Secretion,"SUR-1−/− islets [4]; basal, 100 nM exendin-(9-39), baseline 221 ± 22, listed as exendin-(9-39)",126±12 ng/100 islets/30 min
same,cAMP Content,SUR-1−/− islets [5]; 100 nM exendin-(9-39) + 4 mM AAM (amino acid-stimulated),52.5 ± 9.4^c pmol/100 islets
same,cAMP Content,"SUR-1−/− islets [5]; 100 nM exendin-(9-39) + 4 mM AAM (amino acid-stimulated), listed as exendin-(9-39)",20.9±4.4 pmol/100 islets
same,cAMP Content,"SUR-1−/− islets [5]; basal, 100 nM exendin-(9-39), no exogenous GLP-1, glucose free KRBB, baseline 40.1 ± 4.2",20.5 ± 2.3^a pmol/100 islets
same,cAMP Content,"SUR-1−/− islets [5]; basal, 100 nM exendin-(9-39), no exogenous GLP-1, glucose free KRBB, baseline 40.1 ± 4.2, listed as exendin-(9-39)",20.5±2.3 pmol/100 islets
same,Insulin/glucose ratio,"SUR-1−/− mice [6]; SUR-1−/− mice, WT vs. SUR-1−/− Ex-(9-39) p=0.32 (FIG. 3B)",normalized
same,Fasting glucagon levels among treatment groups,SUR-1−/− mice [6]; [11],not different
same,Fasting insulin levels among treatment groups,SUR-1−/− mice [6]; [11],not different
same,Peripheral insulin sensitivity,[7],did not impact; also recorded: did not influence
same,Fasting blood glucose levels vs. vehicle-treated wild type controls,wild-type littermates [8],not different
same,Fasting blood glucose levels,"SUR-1−/− mice [9]; day 3, mean±SEM",82.2 ± 6.3 mg/dL
same,Fasting blood glucose levels,"SUR-1−/− mice [9]; day 7, mean±SEM",82 ± 4.7 mg/dL
same,Effect on fasting blood glucose levels (in words),"SUR-1−/− mice [9]; 12-16 hour fast, day 7 (FIG. 2)",normalized
same,"Insulin response to KCl, presence vs. absence of exendin-(9-39)",SUR-1−/− islets [10]; 100 nM exendin-(9-39),similar
same,Insulin release in response to ramp of amino acid mixture,"SUR-1−/− islets [10]; amino acids 0-12 mM, 100 nM exendin-(9-39) (FIG. 5)",blocked

# Reference: patent publication US9821031B2, “Methods and compositions for treating hypoglycemic disorders” (priority 2007, dated 2017)
